Legend:
Mus musculus [1] = test: Potentiation of apomorphine-induced gnawing in ip dosed albino CF1 mouse; format: organism-based
Mus musculus [2] = test: Reduction of hypoxic stress in ip dosed albino CF1 mouse assessed as prolongation of hypoxic survival time; format: functional
Mus musculus [3] = test: Inhibition of oxotremorine-induced hypothermia in ip dosed albino CF1 mouse; format: functional
Mus musculus [4] = test: Potentiation of yohimbine toxicity in ip dosed aggregated albino CF1 mouse; format: organism-based
Mus musculus [5] = test: Hypothermic activity in ip dosed albino CF1 mouse assessed as effect on body temperature measured after 45 mins; format: functional; conditions: 0.75 h
Mus musculus [6] = test: Inhibition of apomorphine-induced cage climbing in ip dosed albino CF1 mouse compound administered prior to challenge measured for 5 mins after 5 mins of challenge; format: functional
Mus musculus [7] = test: Anticonvulsant activity in ip dosed albino CF1 mouse assessed as protection against pentylenetetrazole-induced clonic convulsions; format: functional
Mus musculus [8] = test: Anticonvulsant activity in ip dosed albino CF1 mouse assessed as inhibition of bicucullin-induced tonic extensor convulsions; format: functional
Mus musculus [9] = test: Inhibition of amphetamine aggregation toxicity in ip dosed albino CF1 mouse compound administered 1 hr prior to challenge measured after 2 hrs; format: functional
Mus musculus [10] = test: […] activity in ip dosed albino CF1 mouse assessed as potentiation of gamma-butyrolactone-induced sleep; format: functional

SMILES	ED50 (Mus musculus [1])	ED50 (Mus musculus [2])	ED50 (Mus musculus [3])	ED50 (Mus musculus [4])	ED50 (Mus musculus [5])	ED50 (Mus musculus [6])	ED50 (Mus musculus [7])	ED50 (Mus musculus [8])	ED50 (Mus musculus [9])	ED50 (Mus musculus [10])
CN1C(=O)CN=C(c2ccccc2)c2cc(Cl)ccc21 [DIAZEPAM]	> 50 mg/kg	0.2 mg/kg	> 50 mg/kg	> 50 mg/kg	14.9 mg/kg	> 50 mg/kg	0.1 mg/kg	2.6 mg/kg	> 50 mg/kg	0.035 mg/kg
CCN1CCN(c2nnc3n2-c2ccc(Cl)cc2C(c2ccccc2)=NC3)CC1	29.7 mg/kg	25 mg/kg	0.2 mg/kg	> 50 mg/kg	42 mg/kg	> 50 mg/kg	0.9 mg/kg	1.9 mg/kg	> 50 mg/kg	0.6 mg/kg
Clc1ccc2c(c1)C(c1ccccc1Cl)=NCc1nnc(N3CCOCC3)n1-2	> 50 mg/kg	0.06 mg/kg	> 50 mg/kg	> 50 mg/kg	6 mg/kg	> 50 mg/kg	0.06 mg/kg	0.05 mg/kg	> 50 mg/kg	0.04 mg/kg
Clc1ccc2c(c1)C(c1ccccc1)=NCc1nnc(Br)n1-2	> 50 mg/kg	6 mg/kg	> 50 mg/kg	> 50 mg/kg	> 50 mg/kg	> 50 mg/kg	2.3 mg/kg	3 mg/kg	> 50 mg/kg	2 mg/kg
CN1CCN(c2nnc3n2-c2ccc(Br)cc2C(c2ccccn2)=NC3)CC1	3.7 mg/kg	21 mg/kg	> 50 mg/kg	35.4 mg/kg	> 50 mg/kg	> 50 mg/kg	12.5 mg/kg	8.8 mg/kg	> 50 mg/kg	3.1 mg/kg
CC1N=C(c2ccccc2)c2cc(Cl)ccc2-n2cnnc21 (stereo not given)	> 50 mg/kg	42 mg/kg	7.4 mg/kg	> 50 mg/kg	10.5 mg/kg	> 50 mg/kg	3.7 mg/kg	4.4 mg/kg	> 50 mg/kg	0.6 mg/kg
CCOCc1nnc2n1-c1ccc(Cl)cc1C(c1ccccc1)=NC2	> 50 mg/kg	10 mg/kg	> 50 mg/kg	> 50 mg/kg	40 mg/kg	> 50 mg/kg	1.4 mg/kg	3 mg/kg	> 50 mg/kg	0.9 mg/kg
CC1N=C(c2ccccc2)c2cc(Cl)ccc2-n2c1nnc2N1CCN(C)CC1 (stereo not given)	> 50 mg/kg	4.4 mg/kg	4.4 mg/kg	8.8 mg/kg	29.7 mg/kg	50 mg/kg	3.1 mg/kg	2.6 mg/kg	> 50 mg/kg	0.7 mg/kg
COCc1nnc2n1-c1ccc(Cl)cc1C(c1ccccc1)=NC2	> 50 mg/kg	20 mg/kg	> 50 mg/kg	> 50 mg/kg	30 mg/kg	> 50 mg/kg	2 mg/kg	0.6 mg/kg	> 50 mg/kg	2 mg/kg
OCc1nnc2n1-c1ccc(Cl)cc1C(c1ccccc1)=NC2	> 50 mg/kg	0.9 mg/kg	20 mg/kg	> 50 mg/kg	> 50 mg/kg	> 50 mg/kg	0.1 mg/kg	0.2 mg/kg	> 50 mg/kg	0.1 mg/kg
CN(C)C(=O)Cc1nnc2n1-c1ccc(Cl)cc1C(c1ccccc1)=NC2	> 50 mg/kg	> 50 mg/kg	> 50 mg/kg	> 50 mg/kg	> 50 mg/kg	> 50 mg/kg	5.6 mg/kg	40 mg/kg	> 50 mg/kg	10 mg/kg
OCCc1nnc2n1-c1ccc(Cl)cc1C(c1ccccc1)=NC2	> 50 mg/kg	4 mg/kg	> 50 mg/kg	> 50 mg/kg	30 mg/kg	> 50 mg/kg	4 mg/kg	> 50 mg/kg	> 50 mg/kg	> 50 mg/kg
Clc1ccc2c(c1)C(c1ccccc1)=NCc1nnc(N3CCCC3)n1-2	> 50 mg/kg	> 50 mg/kg	30 mg/kg	> 50 mg/kg	40 mg/kg	> 50 mg/kg	4.5 mg/kg	4 mg/kg	> 50 mg/kg	3 mg/kg
FC(F)(F)c1nnc2n1-c1ccc(Cl)cc1C(c1ccccc1)=NC2	> 50 mg/kg	> 50 mg/kg	> 50 mg/kg	> 50 mg/kg	> 50 mg/kg	> 50 mg/kg	20 mg/kg	> 50 mg/kg	> 50 mg/kg	> 50 mg/kg
CSc1nnc2n1-c1ccc(Cl)cc1C(c1ccccc1)=NC2	> 50 mg/kg	10 mg/kg	> 50 mg/kg	> 50 mg/kg	10 mg/kg	> 50 mg/kg	8 mg/kg	10 mg/kg	> 50 mg/kg	0.8 mg/kg
Clc1ccc2c(c1)C(c1ccccc1)=NCc1nnc(N3CCOCC3)n1-2	35.4 mg/kg	> 50 mg/kg	35.4 mg/kg	> 50 mg/kg	7 mg/kg	40 mg/kg	2.6 mg/kg	3.1 mg/kg	> 50 mg/kg	4.4 mg/kg
CN1CCN(c2nnc3n2-c2ccc(Cl)cc2C(c2ccccc2Cl)=NC3)CC1	> 50 mg/kg	0.011 mg/kg	4.4 mg/kg	35.4 mg/kg	3.1 mg/kg	> 50 mg/kg	0.03 mg/kg	0.06 mg/kg	> 50 mg/kg	0.035 mg/kg
OCCN1CCN(c2nnc3n2-c2ccccc2C(c2ccccc2Cl)=NC3)CC1	> 50 mg/kg	0.9 mg/kg	40 mg/kg	30 mg/kg	2 mg/kg	> 50 mg/kg	3 mg/kg	6 mg/kg	> 50 mg/kg	3 mg/kg
N#CCc1nnc2n1-c1ccc(Cl)cc1C(c1ccccc1)=NC2	> 50 mg/kg	2 mg/kg	> 50 mg/kg	> 50 mg/kg	> 50 mg/kg	40 mg/kg	0.63 mg/kg	0.2 mg/kg	> 50 mg/kg	0.07 mg/kg
COc1nnc2n1-c1ccc(Cl)cc1C(c1ccccc1)=NC2	> 50 mg/kg	> 50 mg/kg	> 50 mg/kg	> 50 mg/kg	10 mg/kg	> 50 mg/kg	0.14 mg/kg	0.5 mg/kg	> 50 mg/kg	0.1 mg/kg
Clc1ccccc1C1=NCc2nncn2-c2ccccc21	> 50 mg/kg	> 50 mg/kg	> 50 mg/kg	> 50 mg/kg	> 50 mg/kg	> 50 mg/kg	> 50 mg/kg	42 mg/kg	> 50 mg/kg	12.5 mg/kg
Brc1ccc2c(c1)C(c1ccccn1)=NCc1nncn1-2	> 50 mg/kg	0.2 mg/kg	> 50 mg/kg	42 mg/kg	> 50 mg/kg	> 50 mg/kg	0.3 mg/kg	0.4 mg/kg	> 50 mg/kg	0.04 mg/kg

From ChEMBL document CHEMBL3244037, “6-Aryl-4H-s-triazolo[4,3-a][1,4]benzodiazepines. Influence of 1-substitution on pharmacological activity” (J Med Chem, 1979)
